Data: US5112382A, “Halopropargyl compounds, compositions, uses and processes of preparation” (Rohm and Haas Company, priority 1990, dated 1992)
≈ marks a conversion by molar mass, not a printed value.

Columns and labels:
[1] = test system: Erysiphe graminis (f. sp. tritici); assay: whole plant or invertebrate; type: in vivo; details: Blumeria graminis
Aureobasidium pullulans = assay: MIC, broth two-fold serial dilution test, Apul; type: cell-based; details: read-out: Minimum Inhibitory Concentration (MIC)
Procedure: (§1) A minimum inhibitory concentration (MIC) value is obtained using a broth, two-fold serial dilution test performed as follows: […] A volume of the stock solution is dispensed into culture media to give an initial starting test concentration of 500 ppm compound. The test is carried out by adding and equal volume of broth to each vessel in the dilution series, except for the first vessel. The first vessel contains twice the volume of broth plus the initial concentration of test compound. One half of the broth from the first vessel is transferred to the second vessel. After being mixed, one half the resulting volume is removed from the second vessel and transferred to the third vessel. The entire cycle is repeated sufficiently to give a series of concentrations amounting to 500, 250, 125, 63, 31, 16, 8, and 4 ppm (or 100, 50, 25, 12.5, 6.2, 3.1, 1.6, and 0.8), respectively. Each vessel is then inoculated with a cell suspension of the appropriate test organism. Bacteria are grown in both and fungi on agar slats for a time and at a temperature appropriate to the species being tested. At the end of the growth period, the broth is vortexed to disperse the cells. In the case of fungi, the pores are harvested by pipetting water onto the slant and dislodging the spores with a sterile loop. The cell/spore suspension is standardized by controlling incubation time, temperature, and the volume of the diluent. The suspension is then used to inoculate the vessels containing the broth compound. The vessels are then incubated at the appropriate temperature. After the incubation, the vessels are examined for growth/no growth. The minimum inhibitory concentration (MIC) is defined as the lowest concentration of compound that results in complete inhibition of growth of the test organism.

Piricularia oryzae [2] = assay: whole plant or invertebrate; type: in vivo; details: Pyricularia oryzae, 192 h, read-out: % Control
Aspergillus niger = assay: MIC, broth two-fold serial dilution test, Anig; type: cell-based; details: read-out: Minimum Inhibitory Concentration (MIC)
Procedure: as §1

[3] = test system: Puccinia recondita (f. sp. tritici Races PKB and PLD); assay: whole plant or invertebrate; type: in vivo; details: 240 h
Escherichia coli = assay: MIC, broth two-fold serial dilution test, Ecol; type: cell-based; details: read-out: Minimum Inhibitory Concentration (MIC)
Procedure: as §1

[4] = test system: Septoria glume blotch of wheat; assay: whole plant or invertebrate; type: in vivo; details: Triticum aestivum
Pseudomonas fluorescens = assay: MIC, broth two-fold serial dilution test, Psfl; type: cell-based; details: read-out: Minimum Inhibitory Concentration (MIC)
Procedure: as §1

Staphylococcus aureus = assay: MIC, broth two-fold serial dilution test, Saur; type: cell-based; details: read-out: Minimum Inhibitory Concentration (MIC)
Procedure: as §1

[5] = test system: Pseudoperonospora cubensis; assay: whole plant or invertebrate; type: in vivo; details: in Cucumis sativus, 168 h
Phytophthora infestans = assay: whole plant or invertebrate; type: in vivo; details: in Solanum lycopersicum, 96 h, read-out: % Control
Pseudomonas aerugenosa = assay: MIC, broth two-fold serial dilution test, Psae; type: cell-based; details: read-out: Minimum Inhibitory Concentration (MIC)
Procedure: as §1

Cochliobolus sativus = assay: In-vitro plant fungicide test, HEL; type: cell-based; details: Bipolaris sorokiniana, rate 25 PPM, read-out: % Control
Rhizoctonia solani = assay: In-vitro plant fungicide test, RHI; type: cell-based; details: rate 25 PPM, read-out: % Control
Xanthomonas campestris = assay: In-vitro plant fungicide test, XAN; type: cell-based; details: XAN, rate 25 PPM, read-out: % Control
Botrytis cinerea = assay: In-vitro plant fungicide test, BOC; details: read-out: % Control
Piricularia oryzae [6] = assay: microbe, parasite or virus in culture; type: cell-based; details: read-out: % Control
Phytophthora capsici = assay: In-vitro plant fungicide test, PHY; type: cell-based; details: rate 25 PPM, read-out: % Control
Pythium ultimum = assay: In-vitro plant fungicide test, PYU; type: cell-based; details: Globisporangium ultimum, rate 25 PPM, read-out: % Control
Fusarium roseum = assay: microbe, parasite or virus in culture; details: Fusarium sambucinum, read-out: % Control
Septoria nodorum = assay: In-vitro plant fungicide test, SEP; type: cell-based; details: Parastagonospora nodorum, rate 25 PPM, read-out: % Control

| Structure (SMILES) | pest or weed control at 200 ppm [1] [%] | MIC (Aureobasidium pullulans) [µg/mL] | pest or weed control at 200 ppm (Piricularia oryzae [2]) [%] | MIC (Aspergillus niger) [µg/mL] | pest or weed control at 200 ppm [3] [%] | MIC (Escherichia coli) [µg/mL] | pest or weed control at 200 ppm [4] [%] | MIC (Pseudomonas fluorescens) [µg/mL] | MIC (Staphylococcus aureus) [µg/mL] | pest or weed control at 200 ppm [5] [%] | pest or weed control at 200 ppm (Phytophthora infestans) [%] | MIC (Pseudomonas aerugenosa) [µg/mL] | inhibition of growth at 25 ppm (Cochliobolus sativus) [%] | inhibition of growth at 25 ppm (Rhizoctonia solani) [%] | inhibition of growth at 25 ppm (Xanthomonas campestris) [%] | inhibition of growth at 25 ppm (Botrytis cinerea) [%] | inhibition of growth at 25 ppm (Piricularia oryzae [6]) [%] | inhibition of growth at 25 ppm (Phytophthora capsici) [%] | inhibition of growth at 25 ppm (Pythium ultimum) [%] | inhibition of growth at 25 ppm (Fusarium roseum) [%] | other results |
| --- | --- | --- | --- | --- | --- | --- | --- | --- | --- | --- | --- | --- | --- | --- | --- | --- | --- | --- | --- | --- | --- |
| COC(=O)N(CC#CI)N=Cc1ccc(C)cc1 [Compound 4, N'-Methoxycarbonyl-N'-3-iodopropargyl 4-methylbenzaldehyde hydrazone] | 0 | 8 (≈ 22.5 µM) | 90 | < 4 | 50 | 250 (≈ 702 µM) | 50 | 125 (≈ 351 µM) | 16 (≈ 44.9 µM) | 95 | 80 | 125 (≈ 351 µM) |  |  |  |  |  |  |  |  |  |
| COC(=O)N(CC#CBr)N=Cc1ccc(Cl)cc1 [Compound 1, N'-Methoxycarbonyl-N'-3-bromopropargyl 4-chlorobenzaldehyde hydrazone] |  | 63 (≈ 191 µM) |  | > 500 |  | > 500 |  | > 500 | > 500 |  |  | 250 (≈ 759 µM) | 0 | 0 | 0 | 0 | 0 | 0 | 0 | 0 |  |
| O=CN(CC#CBr)N=Cc1ccc(Cl)cc1 [Compound 2, N'-Formyl-N'-3-bromopropargyl 4-chlorobenzaldehyde hydrazone] |  | 63 (≈ 210 µM) |  | > 500 |  | > 500 |  | > 500 | > 500 |  |  | 250 (≈ 835 µM) | 0 | 0 | 0 | 0 | 50 | 75 | 0 | 0 | pest or weed control at 600 ppm [1]: 0%; pest or weed control at 600 ppm [3]: 0%; pest or weed control at 600 ppm (Phytophthora infestans): 50% |
| COC(=O)N(CC#CI)N=Cc1ccc(Cl)cc1 [Compound 5, N'-Methoxycarbonyl-N'-3-iodopropargyl 4-chlorobenzaldehyde hydrazone] | 0 | < 4 | 95 | < 4 | 80 | 125 (≈ 332 µM) | 0 | 125 (≈ 332 µM) | 8 (≈ 21.2 µM) | 99 | 90 | 16 (≈ 42.5 µM) | 100 | 75 | 0 | 0 | 100 | 50 | 50 | 95 |  |
| O=C(c1ccccc1)N(CC#CI)N=Cc1ccccc1 [Compound 6, N'-Benzoyl-N'-3-iodopropargyl benzaldehyde hydrazone] |  | 3 (≈ 7.73 µM) |  | 6 (≈ 15.5 µM) |  | 50 (≈ 129 µM) |  | 50 (≈ 129 µM) | 50 (≈ 129 µM) |  |  | 25 (≈ 64.4 µM) | 0 | 0 | 0 | 0 | 100 | 100 | 100 | 0 | inhibition of growth at 25 ppm (Septoria nodorum): 100% |
